PubChem BioAssay (NCI)
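48-hour exposure; five concentrations; linearly interpolated endpoints. At the GI50, growth is halved. At the TGI there is no net growth.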

Assays:
Assay in all cases: NCI anticancer screen, dose series, 48 h
IGROV1 ovarian = system: IGROV1 ovarian
SNB-75 CNS = system: SNB-75 CNS
KM12 colon = system: KM12 colon
HCC-2998 colon = system: HCC-2998 colon
786-0 renal = system: 786-0 renal
HCT-116 colon = system: HCT-116 colon
UACC-257 melanoma = system: UACC-257 melanoma
HT29 colon = system: HT29 colon
OVCAR-5 ovarian = system: OVCAR-5 ovarian
OVCAR-4 ovarian = system: OVCAR-4 ovarian

Structure (SMILES)	TGI (IGROV1 ovarian)	TGI (SNB-75 CNS)	TGI (KM12 colon)	TGI (HCC-2998 colon)	TGI (786-0 renal)	TGI (HCT-116 colon)	TGI (UACC-257 melanoma)	TGI (HT29 colon)	TGI (OVCAR-5 ovarian)	TGI (OVCAR-4 ovarian)	GI50 (IGROV1 ovarian)	GI50 (SNB-75 CNS)	GI50 (OVCAR-4 ovarian)	GI50 (KM12 colon)	GI50 (786-0 renal)	GI50 (HCT-116 colon)	GI50 (UACC-257 melanoma)	GI50 (HT29 colon)	GI50 (OVCAR-5 ovarian)	GI50 (HCC-2998 colon)
C[C@H]1CCC2C(CN3CCCCC3)C(=O)OC2[C@]2(C)C(=O)CC(N3CCCCC3)C12O (some centres undefined)	84.1 µM	49.4 µM	12.3 µM	18.2 µM	22.2 µM	12 µM	13.1 µM	16.4 µM	22.6 µM	–	–	–	–	–	–	–	–	–	–	–
CC(C)(N)C(=O)N[C@@H]1C(=O)N2[C@@H]1SC(C)(C)[C@@H]2C(=O)O	> 100 µM	> 100 µM	> 100 µM	–	> 100 µM	> 100 µM	> 100 µM	> 100 µM	> 100 µM	> 100 µM	–	–	–	–	–	–	–	–	–	–
CSc1nc(SC)c2c(C)cn(C3OC(C)C(O)C(O)C3O)c2n1 (centres undefined)	> 100 µM	> 100 µM	> 100 µM	> 100 µM	> 100 µM	> 100 µM	–	> 100 µM	> 100 µM	> 100 µM	–	–	–	–	–	–	–	–	–	–
NC(CSC1(c2ccc(Cl)cc2)c2ccccc2-c2ccccc21)C(=O)O (centres undefined)	29.4 µM	62.9 µM	63.2 µM	–	50.9 µM	34.6 µM	34.4 µM	> 100 µM	79.5 µM	> 100 µM	–	–	–	–	–	–	–	–	–	–
Cc1cc(C)c(C2=NO[C@@H]3C(=O)N(c4ccc(Cc5ccc(N6C(=O)[C@H]7C(c8c(C)cc(C)cc8C)=NO[C@H]7C6=O)cc5)cc4)C(=O)[C@H]23)c(C)c1	> 100 µM	> 100 µM	> 100 µM	> 100 µM	> 100 µM	–	> 100 µM	> 100 µM	> 100 µM	> 100 µM	–	–	–	–	–	–	–	–	–	–
O=C(O)c1ccccc1C1c2ccc(Cl)cc2Oc2cc(Cl)ccc21	> 100 µM	> 100 µM	> 100 µM	> 100 µM	> 100 µM	–	> 100 µM	> 100 µM	> 100 µM	> 100 µM	–	–	–	–	–	–	–	–	–	–
NCCCCCCCCCn1c2c(c3ccccc3c1=O)C(=O)c1ccccc1-2	> 50 µM	21.7 µM	22.2 µM	–	15.9 µM	17.2 µM	22.7 µM	27.1 µM	19.5 µM	25.9 µM	10.2 µM	10.7 µM	10.3 µM	9.53 µM	7.72 µM	6.5 µM	10.1 µM	8.5 µM	9.6 µM	–
C=C1CCC2(C(C)=O)COC1(C)O2 (centres undefined)	> 100 µM	> 100 µM	> 100 µM	–	> 100 µM	> 100 µM	> 100 µM	> 100 µM	–	–	–	–	–	–	–	–	–	–	–	–
C=CNC(=S)n1nc(-c2ccccc2NC(=O)C(F)(F)F)c(=O)n(C(=S)NC=C)c1=S	> 100 µM	62.8 µM	> 100 µM	> 100 µM	> 1 µM	> 100 µM	–	60.1 µM	> 100 µM	19.6 µM	–	–	–	–	–	–	–	–	–	–
O=C(CC1(O)C(=O)Nc2ccc([N+](=O)[O-])cc21)c1ccc(Br)cc1 (centres undefined)	–	76.7 µM	> 100 µM	> 100 µM	> 100 µM	> 100 µM	> 100 µM	> 100 µM	> 100 µM	> 100 µM	–	–	–	–	–	–	–	–	–	–
O=[N+]([O-])c1cccc([I+]c2ccccc2)c1	27 µM	20.8 µM	26.1 µM	–	29.9 µM	24.2 µM	28 µM	31.2 µM	38.4 µM	36 µM	5.29 µM	6.56 µM	7.13 µM	12 µM	13 µM	7.05 µM	12.1 µM	11.9 µM	17.7 µM	–
CC(C)OC(=O)c1cccnc1/C=N/O	> 100 µM	> 100 µM	> 100 µM	> 100 µM	> 100 µM	> 100 µM	> 100 µM	> 100 µM	> 100 µM	–	–	–	–	–	–	–	–	–	–	–
O=c1sc(-c2nc3ccccc3[nH]2)c(/N=C/c2ccccc2)n1-c1ccccc1	> 100 µM	57.8 µM	> 100 µM	> 100 µM	> 100 µM	–	> 100 µM	> 100 µM	> 100 µM	26.7 µM	–	–	–	–	–	–	–	–	–	–
CN(CC1NCCCC1O)C12CC3CC(CC(C3)C1)C2 (centres undefined)	> 100 µM	–	> 100 µM	> 100 µM	> 100 µM	–	> 100 µM	> 100 µM	> 100 µM	> 100 µM	–	–	–	–	–	–	–	–	–	–
Cc1cc2c(C)nn(Cc3ccccc3Cl)c2c(C#N)c1C	> 100 µM	> 100 µM	–	> 100 µM	> 100 µM	> 100 µM	> 100 µM	> 100 µM	> 100 µM	–	–	–	–	–	–	–	–	–	–	–
Cc1nc(-n2nc(-c3ccccc3)cc2-c2ccccc2)sc1C(/C=C/c1ccc([N+](=O)[O-])cc1)=N/NC(N)=S	> 100 µM	> 100 µM	> 100 µM	74 µM	43.6 µM	43.4 µM	> 100 µM	> 100 µM	> 100 µM	–	–	–	–	–	–	–	–	–	–	–

Structure (SMILES)	TGI (IGROV1 ovarian)	TGI (SNB-75 CNS)	TGI (KM12 colon)	TGI (HCC-2998 colon)	TGI (786-0 renal)	TGI (HCT-116 colon)	TGI (UACC-257 melanoma)	TGI (HT29 colon)	TGI (OVCAR-5 ovarian)	TGI (OVCAR-4 ovarian)	GI50 (IGROV1 ovarian)	GI50 (SNB-75 CNS)	GI50 (OVCAR-4 ovarian)	GI50 (KM12 colon)	GI50 (786-0 renal)	GI50 (HCT-116 colon)	GI50 (UACC-257 melanoma)	GI50 (HT29 colon)	GI50 (OVCAR-5 ovarian)	GI50 (HCC-2998 colon)
Cn1c2c(c3ccccc31)CCN(CCCN1CCN(c3ccccc3)CC1)C2=O	38 µM	–	–	–	39.1 µM	29.8 µM	–	26.7 µM	–	–	–	–	–	–	–	–	–	–	–	–
CSCC(COC(C)=O)(CSC)c1ccncc1	> 100 µM	> 100 µM	> 100 µM	> 100 µM	> 100 µM	> 100 µM	> 100 µM	> 100 µM	–	> 100 µM	–	–	–	–	–	–	–	–	–	–
CC(=O)Nc1ccc(Cc2ccc3[nH]c(=O)cc(C)c3c2)cc1	> 100 µM	28.1 µM	> 100 µM	–	98.2 µM	> 100 µM	> 100 µM	> 100 µM	> 100 µM	> 100 µM	–	–	–	–	–	–	–	–	–	–
COc1cc(OC)c(/C=C/C(=O)c2c(O)cc(OC)c(C3CCN(C)CC3)c2OC)c(OC)c1	–	2.86 µM	3.38 µM	2.82 µM	2.72 µM	1.65 µM	2.77 µM	1.5 µM	2.84 µM	3 µM	–	1.39 µM	1.4 µM	1.71 µM	1.42 µM	0.414 µM	1.46 µM	0.421 µM	1.48 µM	1.46 µM
c1ccc(N2N=NC3C4CC(C5c6ccccc6C45)C32)cc1 (centres undefined)	> 100 µM	> 100 µM	> 100 µM	–	> 100 µM	82.7 µM	76.4 µM	40.3 µM	> 100 µM	> 100 µM	–	–	–	–	–	–	–	–	–	–
C1C[S][Ge]2([S]CCS1)[S]CCSCC[S]2	> 100 µM	95 µM	–	> 100 µM	> 100 µM	> 100 µM	–	–	–	> 100 µM	> 100 µM	18.9 µM	> 100 µM	–	> 100 µM	> 100 µM	–	–	–	> 100 µM
C=CCCCC(O)c1ccc(C(O)c2cnc3ccccc3c2)o1 (centres undefined)	–	> 100 µM	77.9 µM	51.4 µM	> 100 µM	–	61.4 µM	> 100 µM	76.8 µM	> 100 µM	–	99.2 µM	> 100 µM	28.1 µM	39.8 µM	–	18.8 µM	46.9 µM	24.4 µM	19 µM
O=C1c2ccccc2-c2ccccc2C1(Cl)Cl	2.54 µM	3 µM	3.17 µM	–	4.16 µM	1.09 µM	0.476 µM	7.57 µM	–	0.337 µM	1.13 µM	1.62 µM	0.19 µM	1.73 µM	2.11 µM	0.3 µM	0.203 µM	2.52 µM	–	–
O=C(O)c1c[nH]c2c(ccc3[nH]cc(C(=O)O)c(=O)c32)c1=O	> 100 µM	75 µM	> 100 µM	–	> 100 µM	> 100 µM	> 100 µM	> 100 µM	> 100 µM	> 100 µM	–	–	–	–	–	–	–	–	–	–
CN1c2ccccc2S(=O)(=O)n2c(COc3ccccc3)nnc21	> 100 µM	–	> 100 µM	> 100 µM	> 100 µM	> 100 µM	> 100 µM	> 100 µM	> 100 µM	> 100 µM	–	–	–	–	–	–	–	–	–	–
Clc1ccc(Nc2ncnc3c2sc2ncccc23)c(Cl)c1	> 100 µM	> 30.9 µM	> 100 µM	–	> 100 µM	> 100 µM	> 100 µM	> 100 µM	> 100 µM	> 100 µM	> 100 µM	0.0689 µM	> 100 µM	3.39 µM	< 0.01 µM	< 0.01 µM	0.0557 µM	0.0462 µM	0.0576 µM	–
O=c1[nH]c(-c2ccc([N+](=O)[O-])cc2)nc2ccc(Cl)cc12	> 100 µM	> 100 µM	> 100 µM	> 100 µM	> 100 µM	> 100 µM	> 100 µM	> 100 µM	> 100 µM	–	–	–	–	–	–	–	–	–	–	–
CCOC(=O)CP(=S)(S)c1ccccc1 (centres undefined)	–	–	> 100 µM	–	> 100 µM	–	> 100 µM	> 100 µM	> 100 µM	> 100 µM	–	–	–	–	–	–	–	–	–	–
O=C(O)C1C2CCC(O2)C1C(=O)NCc1cccnc1 (centres undefined)	–	> 100 µM	> 100 µM	–	> 100 µM	> 100 µM	> 100 µM	> 100 µM	> 100 µM	> 100 µM	–	–	–	–	–	–	–	–	–	–
CCC1OC(=O)CC(O)C(C)C(OC2OC(C)CC(N(C)C)C2O)C(CC=O)CC(C)C(=O)/C=C/C2(C)OC2C1C (centres undefined)	25.4 µM	40.8 µM	28.6 µM	> 100 µM	40.9 µM	31.6 µM	> 100 µM	38.3 µM	> 100 µM	–	–	–	–	–	–	–	–	–	–	–
